Source: patent US6593462B2, “Purified β1,2-xylosyltransferase and uses thereof” (priority 1997, dated 2003)

Experiments:
β1,2-xylosyltransferase [1] = experiment: Solubilization of xylosyltransferase from microsomes by detergents; type: biochemical, soybean; conditions: detergent 1%; protein 10 mg/ml
Description: In order to purify this glycosyltransferase, it was necessary to solubilize the enzyme from the microsomes. A variety of detergents were tested at different concentrations for their ability to solubilize the xylosyltransferase and maintain its stability. […] The enzymatic activity in the supernatant liquid was then measured in the usual transferase assay.

β1,2-xylosyltransferase [2] = experiment: Specificity of nucleoside diphosphate sugar donor for xylosyltransferase; type: biochemical, soybean; conditions: radioactive sugar nucleotide 20,000 cpm, 200 μM, asialo-agalactotransferrin glycopeptide acceptor, 1 hour at 37°
Description: The substrate specificity of the xylosyltransferase for the nucleoside diphosphate sugar donor was also examined, using a variety of radiolabeled sugar nucleotides, as presented in Table 4. Each of these substrates was adjusted to have the same specific activity, and they were compared to each other at that activity.
Enzyme (particulate fraction or purified xylosyltransferase (about 20 ng protein) from UDP-hexanolamine-Sepharose) was incubated with radioactive sugar nucleotide (20,000 cpm; 200 μM) and asialo-agalactotransferrin glycopeptide for 1 hour at 37°. The reaction mixture was then separated on a Biogel P-4 column and radioactivity in oligasaccharide was determined.

[3] = system: β1,2-xylosyltransferase (56 and 59 kDa bands); experiment: Photoaffinity labeling of xylosyltransferase with N3-UDP[32P]-xylose; type: binding, soybean
Description: In FIG. 3B, effects of various amounts of acceptor oligosaccharides on labeling with UDP-xylose probe are shown.
In order to determine which band was really the xylosyltransferase, the enzyme fraction from UDP-hexanolamine-Sepharose was incubated with azido-UDP[^32P]-xylose, and after 30 sec., the mixture was exposed to UV light to activate the azido group.
Thus, lane 1 is without oligosaccharide acceptor while lanes 2-5 are with 4, 10, 30 and 80 μM oligosaccharide 4 and lanes 6-9 with oligoscacharide 10.

β1,2-xylosyltransferase [4] = experiment: Xylosyltransferase activity assay: transfer of 3H-xylose from UDP-[3H]xylose to oligosaccharide acceptor; type: biochemical, soybean; conditions: for Effect of cation added to the purified enzyme (in words): 1 mM; for Activity (cpm xylose transferred) with Purified Enzyme / Activity (cpm xylose transferred) with Particulate Enzyme: oligosaccharide as acceptor, gel filtration on Biogel P-4
Description: Reaction mixtures for the assay of β1,2-xylosyltransferase contained the following components in a final volume of 25 μl: 100 mM MES buffer, pH 7.0, 10 mM MnCl2, 0.2% Triton X-100, 5 mM ATP, 0.2 mM UDP-[^3H]xylose (15,000 cpm), and 4 nmol of oligosaccharide acceptor (usually GlcNAc2-Man3-GlcNAc2-tyrosinamide; see structure 4 of FIG. 6, or the asialo-agalacto-oligosaccharide from transferrin). The reaction was started by the addition of 5 μl of the enzyme solution, and incubations were usually at 37° C. for 1 hour. The reaction was stopped by the addition of 100 μl of 1% acetic acid, and the reaction mixtures were chromatographed on a column of Biogel P-4 prepared by placing 8 ml of gel into a 10 ml pipette. The columns were equilibrated with 1% acetic acid, and the product was separated from substrates by elution with 1% acetic acid containing 0.2 M NaCl.
When more purified enzyme preparations were used in the assays, the radiolabeled product could be separated from the radioactive substrate by ion-exchange chromatography on an Amberlite column (or a column of Dowex-1-Cl^−) contained in a Pasteur pipette. […] Thus the wash can be counted as a measure of radioactive xylose transferred to oligosaccharide. In these assays, it is important to be certain that the enzyme preparation is free of degradative enzymes that cleave UDP-xylose to free xylose.

CCCCCCCCCCCCCCCC[n+]1ccccc1.[Cl-] [CPC]
Xylose Transferred to Acceptor (cpm), High Speed Supernatant (β1,2-xylosyltransferase [1]): 64 cpm | Xylose Transferred to Acceptor (cpm), Particulate Suspension (β1,2-xylosyltransferase [1]): 1341 cpm

CCCCCCCCO[C@@H]1O[C@H](CO)[C@@H](O)[C@H](O)[C@H]1O [Octylglucoside]
Xylose Transferred to Acceptor (cpm), High Speed Supernatant (β1,2-xylosyltransferase [1]): 210 cpm | Xylose Transferred to Acceptor (cpm), Particulate Suspension (β1,2-xylosyltransferase [1]): 2395 cpm

CC(=O)N[C@H]1[C@@H](OP(=O)(O)OP(=O)(O)OC[C@H]2O[C@@H](n3ccc(=O)[nH]c3=O)[C@H](O)[C@@H]2O)O[C@H](CO)[C@@H](O)[C@@H]1O [UDP-GlcNAc]
cpm incorporated into oligosaccharide, Particulate Enzyme (β1,2-xylosyltransferase [2]): 246 cpm | cpm incorporated into oligosaccharide, Purified Enzyme (β1,2-xylosyltransferase [2]; about 20 ng protein): 128 cpm

O=C(O)[C@H]1O[C@H](OP(=O)(O)OP(=O)(O)OC[C@H]2O[C@@H](n3ccc(=O)[nH]c3=O)[C@H](O)[C@@H]2O)[C@H](O)[C@@H](O)[C@@H]1O [UDP-glucuronic acid]
Effect of unlabeled nucleoside diphosphate sugar on radiolabel in the 56 and 59 kDa bands ([3]; 10 and 100 μM (b69 prints 0.1, 1 and 10 μM for UDP-xylose)): did not inhibit

[Cl][Mn][Cl] [MnCl2]
Effect of cation added to the purified enzyme (in words) (β1,2-xylosyltransferase [4]): slight stimulation

[Pb+2] [Pb^++]
Effect of cation added to the purified enzyme (in words) (β1,2-xylosyltransferase [4]): strongly inhibitory

C[C@H](CCC(=O)NCCC[N+](C)(C)CCCS(=O)(=O)[O-])[C@H]1CC[C@H]2[C@@H]3[C@H](O)C[C@@H]4C[C@H](O)CC[C@]4(C)[C@H]3C[C@H](O)[C@]12C [CHAPS]
Xylose Transferred to Acceptor (cpm), High Speed Supernatant (β1,2-xylosyltransferase [1]): 541 cpm | Xylose Transferred to Acceptor (cpm), Particulate Suspension (β1,2-xylosyltransferase [1]): 2168 cpm

GlcNAc-Man3-5-isomer [Oligosaccharide 9]
Ability to serve as acceptor of xylose (in words) (β1,2-xylosyltransferase [4]): completely inactive as an acceptor | Activity (cpm xylose transferred) with Purified Enzyme (β1,2-xylosyltransferase [4]): 1194 cpm

CC(=O)N[C@H]1[C@H](O[C@H]2[C@H](O)[C@@H](NC(C)=O)C(O)O[C@@H]2CO)O[C@H](CO)[C@@H](O[C@@H]2O[C@H](CO[C@H]3O[C@H](CO[C@H]4O[C@H](CO)[C@@H](O)[C@H](O)[C@@H]4O[C@H]4O[C@H](CO)[C@@H](O)[C@H](O)[C@@H]4O)[C@@H](O)[C@H](O[C@H]4O[C@H](CO)[C@@H](O)[C@H](O)[C@@H]4O[C@H]4O[C@H](CO)[C@@H](O)[C@H](O)[C@@H]4O)[C@@H]3O)[C@@H](O)[C@H](O[C@H]3O[C@H](CO)[C@@H](O)[C@H](O)[C@@H]3O[C@H]3O[C@H](CO)[C@@H](O)[C@H](O)[C@@H]3O[C@H]3O[C@H](CO)[C@@H](O)[C@H](O)[C@@H]3O)[C@@H]2O)[C@@H]1O (some centres unmarked) [Man9(GlcNAc)2]
Activity (cpm xylose transferred) with Particulate Enzyme (β1,2-xylosyltransferase [4]): 48 cpm | Activity (cpm xylose transferred) with Purified Enzyme (β1,2-xylosyltransferase [4]): 262 cpm

[Fe+2] [Fe^++]
Effect of cation added to the purified enzyme (in words) (β1,2-xylosyltransferase [4]): no stimulation

GlcNAc2Man3GlcNAc(Fuc)GlcNAc-T [Oligosaccharide 10]
Ability to serve as acceptor of xylose (in words) (β1,2-xylosyltransferase [4]): best acceptors | Activity (cpm xylose transferred) with Particulate Enzyme (β1,2-xylosyltransferase [4]): 3212 cpm | Activity (cpm xylose transferred) with Purified Enzyme (β1,2-xylosyltransferase [4]): 2387 cpm | Km (β1,2-xylosyltransferase [4]; purified enzyme, FIG. 8): ~150 µM | Effect of oligosaccharide on binding of UDP-xylose probe ([3]; FIG. 3A lanes 12 and 13): greatly stimulated binding of UDP-xylose

[Co+2] [Co^++]
Effect of cation added to the purified enzyme (in words) (β1,2-xylosyltransferase [4]): no stimulation

Transferrin: transferrin obtained from Sigma Chemical Co.
Activity (cpm xylose transferred) with Purified Enzyme (β1,2-xylosyltransferase [4]): 106 cpm
